The subject of data set [1] is canal déférent isolé de rat. As to the kind of experiment: α-adrenolytic action in vitro: antagonism of noradrenaline-induced contractions of isolated rat vas deferens (pA2). It counts as cell-based. The settings on record: pA2 against noradrenaline, read-out: Action α-bloquante vis-à-vis de la noradrénaline PA2 sur canal déférent isolé (converted). An excerpt: 2. Détermination de l'action α-adrénolytique "in vitro" sur le canal déférent du rat.
La noradrénaline provoque des contractions du canal déférent isolé de rat. La présence dans le bain de l'organe de substances α-bloquantes antagonise ces contractions.
L'utilisation de concentrations croissantes de substances α-bloquantes permet de calculer : . la PA₂ des composés sur le canal déférent de rat.
La PA₂ étant le logarithme changé de signe de la concentration molaire des produits B 1O2O - B 1O21 - B 1O37 - -B 1O59 en présence de laquelle il faut multiplier par deux la concentration de noradrénaline pour obtenir le même effet qu'en l'absence dudit produit.

Data set [2] deals with récepteurs α-adrénergiques. As to the kind of experiment: Adrenolytic activity in vivo in the rat: protection against death induced by i.v. noradrenaline. The note with it: 50 mg/kg P.O, 30 min before i.v. noradrenaline (0,4 mg/kg). How it is done:
3. Détermination de l'activité adrénolytique "in vivo" chez le rat
. La noradrénaline injectée à fortes doses par voie intraveineuse provoque la mort de 1OO % des animaux dans les 15 min qui suivent son injection. La mort survient par oedème pulmonaire dû à l'hypertension artérielle induite principalement par la stimulation des récepteurs α-adrénergiques.
. L'administration préalable de substances α-adrénolytiques par voie orale permet de réduire la toxicité de la noradrénaline.
Les produits B 1O2O - B 1O21 - B 1O37 - B 1O59 sont administrés par voie orale 3O min avant l'injection intraveineuse de noradrénaline (O,4 mg/kg).

A short description of data set [3]: Acute toxicity test in the mouse (oral). The settings on record: in vivo, read-out: Mortalité en %. An excerpt: 1. Tests de toxicité aiguë chez la souris
Les résultats sont rapportés dans le tableau 1.

In data set [4] the test system is effet hypertenseur de la noradrénaline. As to the kind of experiment: Urethral specificity of alpha-blocking activity in vivo in the rabbit: inhibition of noradrenaline-induced rise of arterial and urethral pressure. More on the design: species or system lapin. The note with it: for ED50: Oryctolagus cuniculus, intravenous administration; for R DI50 (a) DI50 (u): ratio of arterial DI50 to urethral DI50. An excerpt: 4. Spécificité urétrale de l'activité alpha bloquante déterminée in vivo chez le lapin :
a) - Principe de la mesure
. La noradérnaline (I.V.) provoque des augmentations dépendantes des doses de la pression artérielle et de la pression urétrale. Les substances adrénolytiques alpha antagonisent ces augmentations de pression.
. Pour les produits B 1020 - B 1037 et B 1059 administrés par voie veineuse, nous avons déterminé les doses inhibant de 50 p. cent (DI₅₀ ) l'effet de la noradrénaline au niveau artériel et urétral et évaluer le rapport R de ces DI₅₀ .

Where [5] appears, read: arterial pressure, read-out: Doses inhibant de 50 p.cent (DI50) l'effet hypertenseur de la noradrénaline au niveau artériel DI50 (a).
Setting [6] is: urethral pressure, read-out: Doses inhibant de 50 p.cent (DI50) l'effet hypertenseur de la noradrénaline au niveau urétral DI50 (u).

SMILES strings stand for the structures. Where two headings read alike, the source gives them in different places.

Regarding `Cc1ccc(C(C)C)c(OCCCN2CCCCC2)c1` [B 1020, chlorhydrate du [(pipéridino-3)propoxy]-3 p.cymène], in data set [1], the Kb was 302 nM. The “% de protection contre la mort” value in data set [2] was 80%. For the same molecule, the mortality in data set [3] (100 mg/kg) was 0%; in data set [3] (1000 mg/kg) it was 40%. Further, the ED50 was > 3 mg/kg in data set [4] (setting [5]) and 1.7 mg/kg in data set [4] (setting [6]). The “R DI50 (a) DI50 (u)” value in data set [4] is > 1,7.

As to `CC(=O)c1cc(C(C)C)c(OCCCN2CCCCC2)cc1C` [B 1021, chlorhydratede l'acétyl-2-[(pipéridino-3)propoxy]-5 p.cymène], the Kb in data set [1] is 1740 nM. Further, in data set [2], the “% de protection contre la mort” value was determined as 40%. Besides, the mortality in data set [3] (100 mg/kg) stood at 20%; in data set [3] (1000 mg/kg), 100%.

In the case of `Cc1cc(OCCCN2CCCCC2)c(C(C)C)cc1O` [B 1037, chlorhydratede l'hydroxy-2-[(pipéridino-3)propoxy]-5 p.cymène], the Kb in data set [1] was 151 nM. Moreover, the “% de protection contre la mort” value in data set [2] is given as 50%. Also, the mortality in data set [3] (100 mg/kg) stood at 0%; in data set [3] (1000 mg/kg), 100%. The ED50 is > 3 mg/kg in data set [4] (setting [5]) and 0.5 mg/kg in data set [4] (setting [6]). In addition, in data set [4], the “R DI50 (a) DI50 (u)” value is listed as > 6.

Consider `CC(=O)Oc1cc(C(C)C)c(OCCCN2CCCCC2)cc1C` [B 1059, chlorhydratede l'acétoxy-2-[(pipéridino-3)propoxy]-5 p.cymène], for which, in data set [1], the Kb was 126 nM. In data set [2], the “% de protection contre la mort” value was determined as 50%. Besides, the mortality in data set [3] (100 mg/kg) was determined as 0%; in data set [3] (1000 mg/kg), 100%. Besides, the figures for the ED50 in data set [4] (setting [5]) and in data set [4] (setting [6]) were > 3 mg/kg and 0.8 mg/kg, respectively. Further, the “R DI50 (a) DI50 (u)” value in data set [4] is recorded as > 3,7.

For `CC(=O)Oc1cc(C(C)C)c(OCCN(C)C)cc1C` [Thymoxamine, chlorhydrate de thymoxamine, reference compound], the Kb in data set [1] was 56.2 nM. For the same molecule, in data set [2], the “% de protection contre la mort” value is recorded as 80%. In addition, the mortality in data set [3] (100 mg/kg) amounted to 0%; in data set [3] (1000 mg/kg) it was 100%. The ED50 was 2.9 mg/kg in data set [4] (setting [5]) and 0.7 mg/kg in data set [4] (setting [6]). Further, the “R DI50 (a) DI50 (u)” value in data set [4] is on record as 4,1.

The values above are taken from patent EP0237411A1, “(Piperidino-3)propoxy-5p-cymene, its acetyl, acetoxy and hydroxy derivatives, salts of these products, process for the preparation of these compounds and medicines containing at least one of these products as active principle” (INSTITUT DE RECHERCHES CHIMIQUES ET BIOLOGIQUES APPLIQUEES …, priority 1986, dated 1987).
